The source of these data is US20240318196A1, “BRASSICA EVENT MON94100 AND METHODS OF USE THEREOF” (Monsanto Technology LLC, priority 2018, published 2024).

Assay [1] relates to Plants comprising Brassica Event MON94100. Briefly: Volunteer control: greenhouse plant injury rate after synthetic auxin herbicide spray. It is filed as in vivo. The settings on record: for Plant Injury Rates (%) After Herbicide Spray, MON94100: sprayed at V3 stage, 9 days after treatment, greenhouse. Here is the method: (§1) Plants comprising Brassica Event MON94100 and non-transgenic plants of the same germplasm as a control were grown in a greenhouse in a randomized complete block design. Plants were sprayed at V3 stage with one of four synthetic auxin herbicides: dicamba (as XtendiMax®), 2,4-D amine 4 (dimethylamine salt of 2,4-dichlorophenoxyacetic acid), bromoxynil (3,5-dibromo-4-hydroxybenzonitrile as Buctril®), and MCPA amine (4-chloro-2-methylphenoxy acetic acid) in a randomized pattern. Plant injury rate was taken at 9 days after treatment.

The test system of assay [2] is non-transgenic plants of the same germplasm. The assay is described as above. The format is in vivo, Brassica. The settings on record: for Plant Injury Rates (%) After Herbicide Spray, Control: sprayed at V3 stage, 9 days after treatment, greenhouse. The method, then: as §1

For `CNC.O=C(O)COc1ccc(Cl)cc1Cl` [2,4-D amine, dimethylamine salt of 2,4-dichlorophenoxyacetic acid], the “Plant Injury Rates (%) After Herbicide Spray, MON94100” value was determined as 74.5% in assay [1] (1× rate) and 83.5% in assay [1] (2× rate). Further, the “Plant Injury Rates (%) After Herbicide Spray, Control” value in assay [2] (1× rate) is on record as 73.0%; in assay [2] (2× rate), 82.0%.
The corresponding values for `Cc1cc(Cl)ccc1OCC(=O)O` [MCPA, 4-chloro-2-methylphenoxy acetic acid] are 73.0%, 86.5%, 71.5% and 85.0%.
On to `N#Cc1cc(Br)c(O)c(Br)c1` [bromoxynil, 3,5-dibromo-4-hydroxybenzonitrile], for which the “Plant Injury Rates (%) After Herbicide Spray, MON94100” value in assay [1] (1× rate) is listed as 80.5%; in assay [1] (2× rate), 90.3%. The “Plant Injury Rates (%) After Herbicide Spray, Control” value in assay [2] (1× rate) was 83.3%; in assay [2] (2× rate), 90.6%.
For the compound `COc1c(Cl)ccc(Cl)c1C(=O)O` [dicamba, 3,6-dichloro-2-methoxybenzoic acid], the “Plant Injury Rates (%) After Herbicide Spray, MON94100” value in assay [1] (1× rate) was found to be 0.0%. The Plant injury rate entry in assay [1] (commercial rate (1X), sprayed at V3, 9 days after treatment, plants comprising Brassica Event MON94100) was “no injury”; in assay [2] (commercial rate (1X), sprayed at V3, 9 days after treatment, control plants), 21.3%. Also, the “Plant Injury Rates (%) After Herbicide Spray, Control” value in assay [2] (1× rate) was determined as 21.3%.
